From patent US20130317027A1, “COMPOUNDS AND THERAPEUTIC USES THEREOF” (Myrexis, Inc, priority 2010, published 2013)
pIC50: −log10 of the molar value.

Experiments:
[1] = molecular target: T1, Human NAMPT (Homo sapiens, UniProt P43490); test: Nampt Activity Assay (coupled enzyme, resazurin/diaphorase fluorometric detection of NADH); format: biochemical; details: read-out: vitro IC50 (Nampt activity assay)
T1 construct: 6xHis (N); made in house; host or cells: E. coli BL21-AI
Source text: 5-phosphoribosyl-1-pyrophosphate (PRPP), ATP, NaM, NaMN, Triton X-100, UDP-glucose and diaphorase were purchased from Sigma-Aldrich, St. Louis, Mo. Human NAMPT, NMN adenylyltransferase (NMNAT1) and UDP-glucose dehydrogenase (UGDH) encoding DNAs were each inserted into a house-modified E. Coli expression vector such that the expressed proteins carried an N-terminal 6×His tag. The His-tagged proteins were expressed in the BL21-AI E. Coli expression strain (Invitrogen Corporation, Carlsbad, Calif.) following induction by 0.2% L-arabinose and 0.5 mM IPTG at 30° C. Proteins were purified on Ni-NTA resin (Qiagen, Germantown, Md.).
The assay for Nampt catalytic activity was constructed based on a previously published coupled enzyme fluorometric technique, which employs NADH as ultimate analyte (Revollo, J. R. et al. Biol. Chem. 279, 50754-50763 (2004)). A substantial improvement in assay sensitivity was achieved by switching from direct detection to a resazurin/diaphorase-based fluorometric detection system for NADH (Guilbault, G. G., and Kramer, D. N. Anal. Chem. 37, 1219-1221 (1965)). The standard inhibition analyses were performed in a real-time mode in 96-well microtiter plates using 50 mM Tris-HCl, pH 7.5, 1% DMSO (v/v), 0.01% Triton X-100 (v/v), 10 mM MgCl2, 2 mM ATP, […], […], […], as well as the following detection reagents: 5 nM Nmnat, 200 nM Ugdh, 200 µM UDP-glucose, 0.02 U/mL diaphorase and […]. Incubation of samples at room temperature for up to 3 hours was followed by quantification of fluorescence intensities at excitation and emission wavelengths of 510 nm and 590 nm, respectively, using Gemini XS plate reader (Molecular Devices, Sunnyvale, Calif.). The counter-assay intended to disqualify false positives, such as inhibitors of detection enzymes or fluorescence quenchers, was carried out essentially as described above with an exception that 1 μM NaMN was substituted for Nampt.

[2] = Cytotoxicity Assay (CellTiter-Glo, 72 hour drug incubation); details: human, HCT116 cells
Procedure: (§1) HCT116 cells were seeded in 96 well plates (Greiner Bio-One, Monroe, N.C.) and allowed to settle overnight. Test compound dissolved in dimethyl sulfoxide (DMSO) was added and drug incubation proceeded for 72 hours. […] After 72 hour, 50 L of CellTiter-Glo Luminescent Cell Viability Assay reagent (Promega Corporation, Madison, Wis.) was added to cells in 200 L of cellular media. After a proscribed incubation period, luminescence was measured using a TopCount NXT plate reader (PerkinElmer, Waltham, Mass.).

[3] = system: PARP; details: in vitro and in vivo models of cerebral ischemia; cited from earlier work
[4] = system: murine gastric and bladder tumors; details: immune-competent mice; cited from earlier work
[5] = system: PARP in HCT116 cells; test: PARP activation by 5-FU; format: cell-based
Source text: Kim, M. Y. et al. Genes & Development 19:1951-67 (2005)). […] TS inactivation is know to cause an imbalance in nucleotide pools that subsequently promotes aberrant uracil incorporation into DNA (Berger S. H. et al. Biochemical Pharmacology 76:697-706 (2008)).

[6] = system: HCT116 cells
Procedure: as §1

[7] = system: HCT116 cells; test: Synergy between Nampt inhibitor and chemotherapeutic compounds (MacSynergy II, CellTiter-Glo); format: cell-based; details: combined with a known Nampt inhibitor
Procedure: Experiments were conducted in HCT116 cells. […] Prior to combinations of compounds, dose curves of cells treated with a single compound were generated to define relevant compound doses to use in the combination analysis. Typically, relevant doses were those found in the inflection portion of a sigmoidal dose-response curve. Utilizing these optimized conditions, cells were dosed with Nampt inhibitor plus the test compound at a variety of concentrations of each, and viability was assessed using CellTiter-Glo. Data was processed using the MacSynergy™ II algorithm, which subtracted from actual data a prediction of compound additivity.

T1 sequence (P43490 whole entry): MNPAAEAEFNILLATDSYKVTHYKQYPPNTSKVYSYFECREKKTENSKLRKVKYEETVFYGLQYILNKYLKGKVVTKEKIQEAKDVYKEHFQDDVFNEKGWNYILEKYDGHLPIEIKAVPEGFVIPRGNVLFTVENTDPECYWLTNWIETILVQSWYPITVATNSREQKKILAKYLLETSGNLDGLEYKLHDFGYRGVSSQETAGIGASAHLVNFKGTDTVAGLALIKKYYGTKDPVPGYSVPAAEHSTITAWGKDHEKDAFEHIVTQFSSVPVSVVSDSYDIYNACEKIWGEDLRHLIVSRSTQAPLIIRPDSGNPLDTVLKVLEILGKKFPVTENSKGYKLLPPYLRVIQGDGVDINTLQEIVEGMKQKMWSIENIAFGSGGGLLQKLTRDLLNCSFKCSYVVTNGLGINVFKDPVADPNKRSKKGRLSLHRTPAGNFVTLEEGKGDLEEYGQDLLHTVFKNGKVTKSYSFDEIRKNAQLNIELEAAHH

Molecule `N#C/N=C(\NCCOc1ccccc1-c1ccccc1)Nc1cccnc1` [Example 641, 1-[2-(Biphenyl-2-yloxy)ethyl]-2-cyano-3-pyridin-3-ylguanidine] has a pIC50 [1] of ~5.89 and an IC50 at 72 h [2] of ~3.2 µM.

With `N#Cc1ccc(S(=O)(=O)Nc2ccc(NC(=O)NCc3cccnc3)cc2)c(Cl)c1` [Example 580, 2-Chloro-4-cyano-N-(4-{[(pyridin-3-ylmethyl)carbamoyl]amino}phenyl) benzenesulfonamide] the pIC50 [1] was ~9.10 and the IC50 at 72 h [2] was ~0.1 µM.

In the case of `O=c1[nH]c(CCCN2CC=C(c3ccccc3)CC2)nc2cccc(Cl)c12` [FR247304], the neuronal damage [3] is listed as “attenuate neuronal damage”.

In the case of `O=C(/C=C/c1cccnc1)NCCCCC1CCN(C(=O)c2ccccc2)CC1` [AP0866], the “effect on tumor growth, co-administration with L-1MT” value [4] is listed as “additive inhibitory effect”.

In the case of `N#C/N=C(/NCC(=O)NCCOc1ccccc1-c1ccccc1)Nc1ccncc1` [Example 634, (Z)-N-[2-(Biphenyl-2-yloxy)ethyl]-N~2~- [(cyanoamino)(pyridin-4-ylamino)methylidene] glycinamide], the pIC50 [1] was ~6.28 and the IC50 at 72 h [2] was ~5 µM.

In the case of `O=C(NCc1cccnc1)Nc1ccc(NS(=O)(=O)c2cc(C(=O)NCC3CCCN3)c(Cl)cc2F)cc1` (centres unmarked) [Example 831, 2-Chloro-4-fluoro-5-[(4-{[(pyridin-3-ylmethyl)carbamoyl]amino}phenyl)sulfamoyl]-N-(pyrrolidin-2-ylmethyl)benzamide], the pIC50 [1] was ~8.00.

For `O=c1[nH]cc(F)c(=O)[nH]1` [5-fluorouracil (5-FU), 5-fluorouracil], the PARP activation [5] was “PARP activator”.

In the case of “4-Fluoro-2-{2-[3- (morpholin-4- yl)azetidin-1- yl]pyridin-4-yl}- N-(4-{[(pyridin- 3-ylmethyl) carbamoyl] amino}phenyl) benzenesulfon- amide [Example 762]”, the pIC50 [6] was ~8.66.

`CN(C)CCOc1cccc(-c2ccccc2CCOc2ccc(NC(=O)NCc3cccnc3)cc2)c1` [Example 797, 1-[4-(2-{3′-[2-(Dimethylamino)ethoxy]biphenyl-2-yl}ethoxy)phenyl]-3-(pyridin-3-ylmethyl)urea] gave a pIC50 [1] of ~8.00.

With `Oc1cccc(-c2nc(N3CCOCC3)c3oc4ncccc4c3n2)c1` [PI-103] the “drug interaction (synergy, additivity, or antagonism) with Nampt inhibitor” value (shortened to “drug interaction … with Nampt inhibitor”) [7] was “synergized”.

For `Cc1nc2ccc(CN(C)c3ccc(C(=O)N[C@@H](CCC(=O)O)C(=O)O)s3)cc2c(=O)[nH]1` [raltitrexed], the “drug interaction … with Nampt inhibitor” value [7] was “synergized”.

`O=C(NCCCNS(=O)(=O)c1ccccc1-c1ccccc1)NCc1cccnc1` [Example 152, N-(3-{[(pyridin-3-ylmethyl)carbamoyl]amino}propyl)biphenyl-2-sulfonamide] showed a pIC50 [1] of ~8.70 and an IC50 at 72 h [2] of ~0.055 µM.

For `O=C(c1cc(Cc2n[nH]c(=O)c3ccccc23)ccc1F)N1CCN(C(=O)C2CC2)CC1` [olaparib], the “drug interaction … with Nampt inhibitor” value [7] was “antagonism”.

For `COS(C)(=O)=O` [methyl methanesulfonate (MMS), methyl methanesulfonate], the “drug interaction … with Nampt inhibitor” value [7] was “synergy”.

For `COc1cc(N/C(=N/C#N)NCc2ccc(NS(=O)(=O)c3ccccc3-c3ccccc3)cc2)ccn1` [Example 613, N-{4-[({(Z)-(Cyanoamino)[(2-methoxypyridin-4-yl)amino]methylidene}amino)methyl]phenyl} biphenyl-2-sulfonamide], the pIC50 [1] was ~7.96 and the IC50 at 72 h [2] was ~2.6 µM.

`N#C/N=C(/NCc1ccc(COc2ccccc2-c2ccccc2)cc1)Nc1ccncc1` [Example 605, 1-{4-[(Biphenyl-2-yloxy)methyl]benzyl}-2-cyano-3-pyridin-4-ylguanidine] gave a pIC50 [1] of ~8.62 and an IC50 at 72 h [2] of ~0.0011 µM.

Work on `C[C@H](Oc1ccccc1-c1ccccc1)c1nc(CNC(=O)NCc2cccnc2)cs1` [Example 363, 1-({2-[(1S)-1-(Biphenyl-2-yloxy)ethyl]-1,3-thiazol-4-yl}methyl)-3-(pyridin-3-ylmethyl)urea] yielded a pIC50 [1] of ~8.47 and an IC50 at 72 h [2] of ~0.29 µM.

With `O=C(NCc1cccnc1)Nc1ccc(COc2cc(C(F)(F)F)ccc2Cl)cc1` [Example 164, 1-(4-{[2-Chloro-5-(trifluoromethyl)phenoxy]methyl}phenyl)-3-(pyridin-3-ylmethyl)urea] the pIC50 [1] was ~8.74 and the IC50 at 72 h [2] was ~0.074 µM.

Work on `O=C(NCc1cccnc1)Nc1ccc(C[S+]([O-])c2ccccc2-c2ccccc2)cc1` (centres unmarked) [Example 210, 1-{4-[(biphenyl-2-ylsulfinyl)methyl]phenyl}-3-(pyridin-3-ylmethyl)urea] yielded a pIC50 [1] of ~8.20 and an IC50 at 72 h [2] of ~0.039 µM.

For `O=C(NCc1cccnc1)Nc1ccc(OCCc2ccc(F)cc2-c2ccnc(N3CCNCC3)c2)cc1` [Example 759, 1-[4-(2-{4-Fluoro-2-[2-(piperazin-1-yl)pyridin-4-yl]phenyl}ethoxy)phenyl]-3-(pyridin-3-ylmethyl)urea], the IC50 at 72 h [2] was ~0.0019 µM.
